Experiment [1] has as its system human poly-IgG (h-poly-IgG). Nature of the experiment: Microtiter plate chromatography of resins, human poly-IgG (bound, yield). Type of experiment: binding.
In another experiment the test system is host cell proteins (HCP). Briefly: Microtiter plate chromatography of resins, host cell proteins (bound). The experiment is classed as binding, CHO.
In another experiment the test system is Palivizumab. Nature of the experiment: Microtiter plate chromatography of resins, Palivizumab (bound, yield). Type of experiment: binding, humanized.
The next experiment has as its system Tocilizumab. Briefly: Microtiter plate chromatography of resins, Tocilizumab (bound, yield). Type of experiment: binding, humanized.
The subject of experiment [2] is Bevacizumab. Briefly: Microtiter plate chromatography of resins, Bevacizumab whole IgG (bound, yield, selectivity). The experiment is classed as binding, humanized.
Experiment [3] deals with T1, Bevacizumab (Homo sapiens, UniProt P01857).
T1 construct: fused on or other part: humanised anti-VEGF-A VH domain N-terminal of the gamma-1 constant region (engineered, no UniProt entry)
The description is as above. The experiment is classed as binding, humanized.

[4] abbreviates: fraction of injected protein bound to resin.
[5] abbreviates: fraction of injected host cell proteins bound to resin.
Where [6] appears, read: fraction of injected whole IgG bound to resin.
Setting [7] is: mass eluted / mass injected, whole IgG.
Where [8] appears, read: fraction of whole IgG Bevacizumab bound to resin.
[9] abbreviates: mass of whole IgG Bevacizumab eluted / mass injected.

Like-named read-outs stand apart in the source and are kept apart here.

In the case of `NCCCNC(=O)c1cccc(C(=O)Nc2ncc(-c3ccccc3)s2)c1` [Ligand L74, Isophthalic acid N-(3-aminopropyl)-N′-(5-phenylthiazol-2-yl)amide], the “h-poly-IgG Bound (%)” value in experiment [1] (setting [4]) is reported as 91%. In experiment [1] (mass eluted / mass injected), the “h-poly-IgG Yield (%)” value worked out at 90%. The “HCP Bound (%)” value with host cell proteins (HCP) (setting [5]) is 53%. Also, in the experiment with Palivizumab (setting [4]), the “Palivizumab Bound (%)” value is reported as 88%. The “Palivizumab Yield (%)” value in the experiment on Palivizumab (mass eluted / mass injected) was 86%. The “Tocilizumab Bound (%)” value in the experiment on Tocilizumab (setting [4]) worked out at 97%. For the same compound, the “Tocilizumab Yield (%)” value in the experiment with Tocilizumab (mass eluted / mass injected) amounted to 91%. Further, the Selectivity in the experiment with Bevacizumab [2] stood at 1.9. Besides, the “Bevacizumab IgG Bound (%)” value at Bevacizumab [3] (setting [6]) was found to be 100%. Besides, at Bevacizumab [3] (setting [7]), the “Bevacizumab IgG Yield (%)” value was determined as 96%.
In the case of `COc1ccc(NC(=O)c2cc(-c3ccco3)[nH]n2)cc1C(=O)NCCCN` [Ligand L20, 5-[5-(2-Furyl)pyrazol-3-yl]carboxamido-2-methoxybenzoic acid N-(3-aminopropyl)amide], in experiment [1], the “h-poly-IgG Bound (%)” value worked out at 93% and the “h-poly-IgG Yield (%)” value is recorded as 82%. Further, the “HCP Bound (%)” value with host cell proteins (HCP) (host cell proteins) is 47%. In the experiment with Palivizumab, the “Palivizumab Bound (%)” value amounted to 97% and the “Palivizumab Yield (%)” value stood at 84%. Further, in the experiment with Tocilizumab, the “Tocilizumab Bound (%)” value was 100% and the “Tocilizumab Yield (%)” value was 96%. In addition, the Selectivity in the experiment with Bevacizumab [2] was found to be 2.1. In addition, the “Bevacizumab IgG Bound (%)” value on Bevacizumab [3] (setting [8]) was found to be 100%. For the same compound, the “Bevacizumab IgG Yield (%)” value at Bevacizumab [3] (setting [9]) was 96%.
For `CCOc1ccc(NC(=O)c2cc(-c3ccco3)n(C)n2)cc1C(=O)NCCCN` [Ligand L29, 5-[5-(2-Furyl)-1-methylpyrazol-3-yl]carboxamido-2-ethoxybenzoic acid N-(3-aminopropyl)amide], in experiment [1], the “h-poly-IgG Bound (%)” value was found to be 95% and the “h-poly-IgG Yield (%)” value was determined as 70%. Also, the “HCP Bound (%)” value in the experiment on host cell proteins (HCP) (host cell proteins) was 43%. In the experiment with Palivizumab, the “Palivizumab Bound (%)” value is 100% and the “Palivizumab Yield (%)” value is 88%. Further, in the experiment on Tocilizumab, the “Tocilizumab Bound (%)” value is listed as 100% and the “Tocilizumab Yield (%)” value was 96%. The Selectivity with Bevacizumab [2] was 2.4. Further, the “Bevacizumab IgG Bound (%)” value at Bevacizumab [3] (setting [8]) came to 100%. For the same compound, at Bevacizumab [3] (setting [9]), the “Bevacizumab IgG Yield (%)” value is reported as 84%.
Turning to `COc1ccc(NC(=O)c2nn(CCO)c3ccccc23)cc1C(=O)NCCCN` [Ligand L59, 5-[1-(2-Hydroxyethyl)indazol-3-ylcarboxamido]-2-methoxybenzoic acid (3-amino-1-propyl)amide], in experiment [1], the “h-poly-IgG Bound (%)” value was found to be 71% and the “h-poly-IgG Yield (%)” value was 71%. Also, the “HCP Bound (%)” value in the experiment with host cell proteins (HCP) (host cell proteins) is 32%. For the same compound, in the experiment with Palivizumab, the “Palivizumab Bound (%)” value turned out to be 64% and the “Palivizumab Yield (%)” value is reported as 64%. Further, in the experiment with Tocilizumab, the “Tocilizumab Bound (%)” value is 89% and the “Tocilizumab Yield (%)” value came out at 89%. In addition, the Selectivity in the experiment on Bevacizumab [2] is 3.1. The “Bevacizumab IgG Bound (%)” value on Bevacizumab [3] (setting [8]) came to 100%. Also, the “Bevacizumab IgG Yield (%)” value at Bevacizumab [3] (setting [9]) was 97%.
Turning to `NCCCNC(=O)c1cccc(C(=O)Nc2nnc(-c3ccco3)s2)c1` [Ligand L70, Isophthalic acid N-(3-aminopropyl)-N′-[5-(2-furyl)-1,3,4-thiadiazol-2-yl]amide], in experiment [1] (setting [4]), the “h-poly-IgG Bound (%)” value came out at 64%. Further, the “h-poly-IgG Yield (%)” value in experiment [1] (mass eluted / mass injected) turned out to be 64%. Also, the “HCP Bound (%)” value in the experiment on host cell proteins (HCP) (setting [5]) was 19%. In the experiment on Palivizumab (setting [4]), the “Palivizumab Bound (%)” value was 55%. Besides, the “Palivizumab Yield (%)” value in the experiment on Palivizumab (mass eluted / mass injected) is given as 55%. For the same compound, the “Tocilizumab Bound (%)” value with Tocilizumab (setting [4]) turned out to be 100%. Further, the “Tocilizumab Yield (%)” value in the experiment on Tocilizumab (mass eluted / mass injected) was 100%. For the same compound, the Selectivity with Bevacizumab [2] is 5.4. Also, at Bevacizumab [3] (setting [6]), the “Bevacizumab IgG Bound (%)” value is given as 100%. Besides, the “Bevacizumab IgG Yield (%)” value on Bevacizumab [3] (setting [7]) is recorded as 83%.
In the case of `COc1ccc(NC(=O)c2cc(-c3ccco3)n(C)n2)cc1C(=O)NCCOCCOCC(=O)NCCOCCOCC(=O)NCCCN` [Ligand L65, 8-{8-{5-[5-(2-Furyl)-1-methylpyrazol-3-ylcarboxamido]-2-methoxyphenylcarboxamido}-3,6-dioxaoctanoylamido}-3,6-dioxaoctanoic acid (3-amino-1-propyl)amide], the “h-poly-IgG Bound (%)” value in experiment [1] (setting [4]) was found to be 67%. Further, the “h-poly-IgG Yield (%)” value in experiment [1] (mass eluted / mass injected) amounted to 67%. In the experiment on host cell proteins (HCP) (setting [5]), the “HCP Bound (%)” value worked out at 11%. Further, in the experiment with Palivizumab (setting [4]), the “Palivizumab Bound (%)” value is recorded as 58%. Further, the “Palivizumab Yield (%)” value in the experiment with Palivizumab (mass eluted / mass injected) amounted to 58%. Moreover, in the experiment with Tocilizumab (setting [4]), the “Tocilizumab Bound (%)” value was determined as 74%. Further, in the experiment with Tocilizumab (mass eluted / mass injected), the “Tocilizumab Yield (%)” value is listed as 71%. The Selectivity in the experiment on Bevacizumab [2] stood at 9.5. In addition, the “Bevacizumab IgG Bound (%)” value on Bevacizumab [3] (setting [6]) amounted to 100%. On Bevacizumab [3] (setting [7]), the “Bevacizumab IgG Yield (%)” value turned out to be 100%.
On to `COc1ccc(NC(=O)c2cn3ccsc3n2)cc1C(=O)NCCCNC(=O)CCCCCN` [Ligand L75, 5-(Imidazo[2,1-b]thiazol-6-ylcarboxamido)-2-methoxybenzoic acid [3-(6-aminohexanoylamido)-1-propyl]amide], for which, in experiment [1] (setting [4]), the “h-poly-IgG Bound (%)” value came to 90%. The “h-poly-IgG Yield (%)” value in experiment [1] (mass eluted / mass injected) is listed as 90%. In addition, the “HCP Bound (%)” value with host cell proteins (HCP) (setting [5]) is 18%. For the same compound, the “Palivizumab Bound (%)” value in the experiment on Palivizumab (setting [4]) amounted to 91%. Besides, the “Palivizumab Yield (%)” value in the experiment on Palivizumab (mass eluted / mass injected) was determined as 91%. Besides, the “Tocilizumab Bound (%)” value with Tocilizumab (setting [4]) stood at 100%. The “Tocilizumab Yield (%)” value in the experiment with Tocilizumab (mass eluted / mass injected) was 98%. In addition, in the experiment on Bevacizumab [2], the Selectivity is given as 5.7. Also, the “Bevacizumab IgG Bound (%)” value on Bevacizumab [3] (setting [6]) turned out to be 100%. Moreover, the “Bevacizumab IgG Yield (%)” value on Bevacizumab [3] (setting [7]) came out at 97%.
`COc1ccc(NC(=O)c2nnc(-c3ccco3)o2)cc1C(=O)NCCCN` [Ligand L58, 5-[5-(2-Furyl)-1,3,4-oxadiazol-2-yl]carboxamido-2-methoxybenzoic acid (3-amino-1-propyl)amide]: in experiment [1], the “h-poly-IgG Bound (%)” value is reported as 98% and the “h-poly-IgG Yield (%)” value came out at 93%. Moreover, the “HCP Bound (%)” value in the experiment with host cell proteins (HCP) (host cell proteins) was determined as 23%. Also, in the experiment on Palivizumab, the “Palivizumab Bound (%)” value is given as 97% and the “Palivizumab Yield (%)” value is 83%. In the experiment on Tocilizumab, the “Tocilizumab Bound (%)” value was found to be 100% and the “Tocilizumab Yield (%)” value came to 100%. For the same compound, the Selectivity in the experiment on Bevacizumab [2] is recorded as 4.3. Besides, the “Bevacizumab IgG Bound (%)” value at Bevacizumab [3] (setting [8]) was 100%. Also, the “Bevacizumab IgG Yield (%)” value on Bevacizumab [3] (setting [9]) was found to be 90%.
Take `COc1ccc(NC(=O)c2cn3ncccc3n2)cc1C(=O)NCCOCCOCC(=O)NCCCC[C@H](NC(=O)COCCOCCNC(=O)c1cc(NC(=O)c2cn3ncccc3n2)ccc1OC)C(=O)NCCCN` [Ligand L62, (S)-2,6-Bis{8-[5-(Imidazo[1,2-b]pyridazin-2-ylcarboxamido)-2-methoxyphenylcarboxamido]-3,6-dioxaoctanoylamido}hexanoic acid (3-amino-1-propyl)amide]: in experiment [1], the “h-poly-IgG Bound (%)” value is given as 89% and the “h-poly-IgG Yield (%)” value came to 89%. For the same compound, the “HCP Bound (%)” value in the experiment with host cell proteins (HCP) (host cell proteins) stood at 3%. In the experiment with Palivizumab, the “Palivizumab Bound (%)” value turned out to be 84% and the “Palivizumab Yield (%)” value came to 77%. For the same compound, in the experiment with Tocilizumab, the “Tocilizumab Bound (%)” value turned out to be 95% and the “Tocilizumab Yield (%)” value is listed as 91%. In the experiment on Bevacizumab [2] (fraction of bound Bevacizumab whole IgG / fraction of bound HCP, truncated beyond values of 10), this compound returned a Selectivity of 10.0. The “Bevacizumab IgG Bound (%)” value at Bevacizumab [3] (setting [8]) came out at 100%. For the same compound, the “Bevacizumab IgG Yield (%)” value at Bevacizumab [3] (setting [9]) is reported as 100%.
For `NCCCNC(=O)c1cccc(C(=O)Nc2cc(-c3ccco3)[nH]n2)c1` [Ligand L21, 3-{N-[5-(2-Furyl)pyrazol-3-yl]carbamoyl}benzoic acid N′-(3-aminopropyl)amide], in experiment [1], the “h-poly-IgG Bound (%)” value is on record as 54% and the “h-poly-IgG Yield (%)” value is 61%. Also, the “HCP Bound (%)” value in the experiment on host cell proteins (HCP) (host cell proteins) is recorded as 50%. In the experiment on Palivizumab, the “Palivizumab Bound (%)” value turned out to be 26% and the “Palivizumab Yield (%)” value stood at 26%. In the experiment on Tocilizumab, the “Tocilizumab Bound (%)” value is recorded as 52% and the “Tocilizumab Yield (%)” value came out at 53%. In the experiment on Bevacizumab [2], this compound gave a Selectivity of 2.0. Besides, the “Bevacizumab IgG Bound (%)” value at Bevacizumab [3] (setting [8]) is reported as 99%. The “Bevacizumab IgG Yield (%)” value at Bevacizumab [3] (setting [9]) was 95%.

Values taken from patent US20130131321A1, “LIGANDS FOR ANTIBODY AND Fc-FUSION PROTEIN PURIFICATION BY AFFINITY CHROMATOGRAPHY” (GRAFFINITY PHARMACEUTICALS GMBH, priority 2010, published 2013).
